Earlier results as cited in patent US9604971B2, “Co-crystal of the PAR-1 receptor antagonists vorapaxar and aspirin” (ARALEZ PHARMACEUTICALS TRADING DAC, priority 2013, dated 2017).

Conditions: over time; reverted to the crystalline structure of Form 1

Compound: CCOC(=O)N[C@@H]1CC[C@@H]2[C@@H](C1)C[C@H]1C(=O)O[C@H](C)[C@H]1[C@H]2/C=C/c1ccc(-c2cccc(F)c2)cn1 [Form 2]
- stability of crystalline polymorphic form: unstable
